Measurements: patent US10092541B2, “Methods for the treatment of diseases ameliorated by PDE4 inhibition using dosage titration of apremilast” (CELGENE CORPORATION, priority 2014, dated 2018)
Marks after values point to notes of the source that are not given here.

Key:
Assay type in all cases: in vivo, human
[1] = tested on: peripheral whole blood; assay: Differential gene expression analyses (microarray) in atopic dermatitis patients
Method: As an exploratory end point to potentially identify immune pathways affected by apremilast, peripheral whole blood was obtained for differential gene expression analyses at baseline and after 3 (cohort 1) and 6 (cohort 2) months of treatment to determine apremilast's potential mechanism of action in patients with atopic dermatitis. RNA isolation and microarray analyses were performed in the Oregon Health and Science University Gene Microarray Shared Resource. Total RNA was isolated from PAXGene tubes using the PAXGene Blood RNA Isolation kit (QIAGEN Inc). RNA quantity was measured by spectrophotometric analysis; RNA quality was evaluated by size analysis on the Bioanalyzer 2100 (Agilent Technologies Inc). All samples passed RNA quality assessment review.
RNA samples were labeled using the OvationWTAPico Amplification and Labeling System (NuGEN Technologies Inc). Fifty nanograms of each sample were amplified with the Ovation WTA Pico kit, converted to sense complementary DNA (cDNA) with the WT-Ovation Exon Module, version 1, kit, and labeled with the Encore Biotin Module kit. Hybridization and array processing were performed as described in the NuGEN Encore Biotin Module User Guide http://www.nugeninc.com/tasks/sites/nugen/assets/File/user_guides/userguide_encore_biotin.pdf). Two micrograms of each labeled cDNA target werehybridized with the GeneChip Human Gene 1.0 ST array (Affymetrix) and scanned on the Affymetrix GeneChip 3000 Scanner. The array image was processed with Affymetrix Command Console (version 3.1.1). Data were normalized using the robust multichip average method.
Differential expression analyses were performed on 16 paired samples. All putatively differentially expressed genes were based on false discovery rate-adjusted P values<0.05. Based on the putative differentially expressed gene list, both enriched pathways and functional gene ontologic characteristics were identified (P<0.05 for hypergeometric test) in the GoStats package within the Bioconductor statistical programming environment (http://www.bioconductor.org).

[2] = tested on: patients with moderate to severe atopic dermatitis; assay: Open-label pilot study of 2 doses of apremilast in adult atopic dermatitis; details: for DLQI scores, average reduction / EASI scores, average reduction / patients who reduced their IGA score by 1 U / average reduction in itch using a VAS / DLQI score, mean after treatment / EASI score, mean after treatment / VAS for pruritus, mean after treatment: 3 months; for average reduction in itch using a VAS: intent-to-treat; for EASI after treatment: from 21.1
[3] = tested on: patients with moderate to severe plaque psoriasis; assay: Esteem 2: randomized, double-blind, placebo controlled, multicenter clinical study in psoriasis; details: for PASI-75, % (LOCF): primary endpoint; for sPGA score 0 (clear) or 1 (almost clear), % (LOCF): with ≥2-point reduction from baseline; for PPPGA score 0 (clear) or 1 (almost clear), %: patients with palmoplantar psoriasis (PPPGA ≥3), n = 26; for ScPGA score 0 (clear) or 1 (minimal), %: patients with scalp psoriasis (ScPGA ≥3), n = 176
Method: In the study 413 patients were enrolled; patients ranged in age from 18 to 83 years, with an overall median age of 46 years. The mean baseline body surface area (BSA) involvement was 25.19% (median 21.0%), the mean baseline PASI score was 19.07 (median 16.80), and the proportion of patients with sPGA score of 3 (moderate) and 4 (severe) at Baseline were 70.0% and 29.8%, respectively. Patients were randomized to Apremilast in an amount of 30 mg twice per day (after the initial dose titration schedule) or placebo for the first 16 weeks, and from Weeks 16 to 32, all patients received Apremilast in an amount of 30 mg twice per day.
Target Dose: 30 mg (po) BID
Day 1: 10 mg in the morning
Day 2: 10 mg morning; 10 mg after noon
Day 3: 10 mg morning; 20 mg after noon
Day 4: 20 mg morning; 20 mg after noon
Day 5: 20 mg morning; 30 mg after noon
During the Randomized Treatment Withdrawal Phase (Weeks 32-52), patients originally randomized to Apremilast who achieved at least a 50% reduction in PASI score (PASI-50) were re-randomized to either placebo or Apremilast 30 mg BID. Patients who were re-randomized to placebo and who lost 50% of the improvement in PASI at Week 32 compared to Baseline, were retreated with Apremilast 30 mg BID.

[4] = cohort 1, 20 mg twice a day, baseline vs 3 months
[5] = cohort 2, 30 mg twice a day, 6 months
[6] = 61 patients with ≥PASI-50 at Week 32 re-randomized to apremilast
[7] = Week 16, 30 mg BID, n = 274, LOCF
[8] = Week 16, 30 mg BID, n = 274, LOCF, listed as Apremilast
[9] = Week 16, 30 mg BID, n = 274, listed as Apremilast
[10] = Week 16, 30 mg BID, patients with baseline DLQI >5, n = 226
[11] = Week 16, 30 mg BID, patients with nail psoriasis (score ≥1), n = 175
[12] = Week 16, 30 mg BID, listed as Apremilast
[13] = initially randomized to apremilast, did not achieve PASI-50 at Week 32
[14] = patients treated with apremilast from baseline
[15] = placebo at baseline, switched to apremilast at Week 16, achieved PASI-50 at Week 32
[16] = placebo at baseline, switched to apremilast at Week 16, did not achieve PASI-50 at Week 32

## CCOc1cc([C@@H](CS(C)(=O)=O)N2C(=O)c3cccc(NC(C)=O)c3C2=O)ccc1OC [apremilast, (+)-2-[1-(3-ethoxy-4-methoxyphenyl)-2-methylsulfonylethyl]-4-acetylaminoisoindoline-1,3-dione]
[1]; [4]
  BAD (bcl-2 antagonist of cell death) phosphorylation pathway gene expression: significant differential expression
  IL-12 signaling (gene ontologic analysis): significant differential expression
  cAMP response element binding (CREB) pathway gene expression: significant differential expression
  chemokine-mediated signaling (gene ontologic analysis): significant differential expression
  cytoskeleton remodeling (gene ontologic analysis): significant differential expression
  regulation of immune complex clearing by monocytes and macrophages (gene ontologic analysis): significant differential expression
[1]; cohort 2, 30 mg twice a day, baseline vs 6 months
  CCR3 signaling in eosinophils gene expression: significant differential expression
[2]; both cohorts combined, post hoc intent-to-treat, mean baseline 11.6
  DLQI after treatment: 4.7
[2]; both cohorts combined, post hoc intent-to-treat, mean baseline 24.8
  EASI score after treatment: 16.2
[2]; both cohorts combined, post hoc intent-to-treat, mean baseline 52.0 mm
  VAS after treatment: 31.7 mm
[2]; cohort 1, 20 mg twice a day
  time to statistically significant decline in pruritus: ≤ 2 weeks
  DLQI scores, average reduction: 55%
  EASI scores, average reduction: 19%
  average reduction in itch using a VAS: 49%
[2]; cohort 1, 20 mg twice a day, 6 patients
  patients who reduced their IGA score by 1 U: 1
[2]; cohort 1, 20 mg twice a day, mean baseline 14.2
  DLQI score, mean after treatment: 6.2
[2]; cohort 1, 20 mg twice a day, mean baseline 30.9
  EASI score, mean after treatment: 22.1
[2]; cohort 1, 20 mg twice a day, mean baseline 62.3 mm
  VAS for pruritus, mean after treatment: 30.5 mm
[2]; cohort 2, 30 mg twice a day
  time to statistically significant clinical improvement in atopic dermatitis: ≤ 2 weeks
  DLQI scores, average reduction: 58%
  EASI scores, average reduction: 39%
  average reduction in itch using a VAS: 25%
[2]; cohort 2, 30 mg twice a day, 3-month time point
  patients who achieved an IGA score of mild: One patient
[2]; cohort 2, 30 mg twice a day, 10 patients
  patients who reduced their IGA score by 1 U: Two of 10 patients
[2]; cohort 2, 30 mg twice a day, baseline 45.8 mm
  VAS for pruritus, mean after treatment: 32.4 mm
[2]; cohort 2, 30 mg twice a day, mean baseline 10.1
  DLQI score, mean after treatment: 3.8
[2]; cohort 2, 30 mg twice a day, mean baseline 21.4
  EASI score, mean after treatment: 13.2
[2]; [5]
  patients improved at least 1 U in the IGA, %: 50%
  patients improved at least 1 U in the IGA, number: Five patients
  patients who achieved an IGA of almost clear: 1
  patients who reached an IGA of mild: Four of these 5
[2]; cohort 2, 30 mg twice a day, 6 months, intent to treat
  EASI after treatment: 11.6
[2]; cohort 2, 30 mg twice a day, 6 months, intent to treat, from 45.8 mm
  VAS after treatment: 25.3 mm
[2]; cohort 2, 30 mg twice a day, 6 months, per protocol, from 10.1
  DLQI after treatment: 4.0
[2]; cohort 2, 30 mg twice a day, 6 months, per protocol
  EASI after treatment: 10.4
[2]; cohort 2, 30 mg twice a day, 6 months, per protocol, from 45.8
  VAS after treatment: 22.7
[2]; either cohort (20 mg or 30 mg twice a day), 3-month time point
  patients who reached an IGA score of clear or almost clear: No patient
[3]; 30 mg BID
  Non-overlapping confidence intervals vs placebo in improvement in pruritus and skin discomfort/pain from baseline, first detected: as early as Week 2
[3]; 30 mg BID, first post-baseline visit
  Non-overlapping confidence intervals vs placebo in mean percentage improvement in PASI from baseline, first detected: as early as Week 2
[3]; 32 patients re-randomized to placebo who lost 50% of PASI improvement and re-initiated apremilast before Week 52
  regained PASI-50 response after re-treatment: 65.6%
[3]; 36 patients re-randomized to apremilast who were also PASI-75 responders at Week 32
  PASI-75 at Week 52: 66.7%
[3]; [6]
  PASI-50 response at Week 52: 80.3%
  mean percent change in PASI at Week 52: −74.4%
  ≥70% improvement from baseline in PASI score at Week 52: 60.7%
[3]; Week 16, 30 mg BID
  decrease in pruritus severity from baseline: ~50%
  decrease in skin discomfort/pain severity from baseline: ~50%
  PPPGA score 0 (clear) or 1 (almost clear), %: 65.4%
  ScPGA score 0 (clear) or 1 (minimal), %: 40.9%
[3]; Week 16, 30 mg BID, n = 274
  PASI-50, % (LOCF): 55.5%
  PASI-50, % (NRI): 53.6* %
  PASI-75, % (NRI): 28.1* %
  PASI-90, % (LOCF): 8.8%
  sPGA score 0 (clear) or 1 (almost clear), % (NRI): 19.7* %
  PASI-75, % (LOCF): 28.8%
  sPGA score 0 (clear) or 1 (almost clear), % (LOCF): 20.4%
[3]; [7]
  Mean % change in PASI score: −50.9%
  Mean change in DLQI score: −6.7*
  Mean change in pruritus VAS score, mm: −33.5 mm
  Mean change in skin discomfort/pain VAS score, mm: −28.5 mm
  Median % change in PASI score: −56.0%
[3]; [8]
  Mean % change in PASI score: −50.9* %
  Mean change in pruritus VAS score, mm: −33.5* mm
  Mean change in skin discomfort/pain VAS score, mm: −28.5* mm
[3]; [9]
  PASI-50, % (LOCF): 55.5* %
  PASI-90, % (LOCF): 8.8^‡ %
  PASI-75, % (LOCF): 28.8* %
  sPGA score 0 (clear) or 1 (almost clear), % (LOCF): 20.4* %
[3]; [10]
  DLQI (decrease of ≥5 points) + PASI-50 response, %: 49.1* %
  DLQI response (decrease of ≥5 points), %: 70.8* %
[3]; [11]
  Mean % change in NAPSI score: −29.0** %
  NAPSI-50, %: 44.6%
[3]; Week 16, 30 mg BID, patients with nail psoriasis (score ≥1), n = 175, listed as Apremilast
  NAPSI-50, %: 44.6* %
[3]; [12]
  PPPGA score 0 (clear) or 1 (almost clear), %: 65.4^|| %
  ScPGA score 0 (clear) or 1 (minimal), %: 40.9* %
[3]; Weeks 16 to 32
  Response rates in placebo patients who switched to apremilast at Week 16 vs apremilast in both treatment periods: response rates similar
[3]; did not lead to discontinuation
  Severity of the majority of adverse events: mild to moderate
[3]; human, in vivo
  5 most common adverse events (AEs): diarrhea, nausea, upper respiratory tract infection, tension headache, and headache
  Discontinuation due to upper respiratory tract infection: No patient discontinued
  Discontinuations due to AEs: diarrhea: 0.8%
  Discontinuations due to AEs: headache: 0.4%
  Discontinuations due to AEs: nausea: 1.2%
  Discontinuations due to AEs: tension headache: 0.2%
[3]; [13]
  PASI-50 at Week 52: 32.8%
  mean percent change from baseline in PASI score at Week 52: −45.7%
[3]; patients re-randomized to apremilast
  median time to first loss of 50% of the PASI improvement obtained at Week 32: 21.9 weeks
[3]; [14]
  PASI, sPGA, and DLQI responses from Weeks 16 to 32: generally maintained
  PASI-50, PASI-75, and PASI-90 responses from Weeks 16 to 32: generally maintained
[3]; [15]
  PASI-50 at Week 52: 83.1%
  mean percent change in PASI from baseline at Week 52: −71.8%
[3]; [16]
  PASI-50 at Week 52: 16.0%
  mean percent change from baseline in PASI at Week 52: −24.7%
[3]; study conclusion
  signs and symptoms of psoriasis: significantly improved
